Test results published in US12202835B2, “Substituted aromatic ring-linked dioxinoquinazolines and dioxinoquinolines as kinase inhibitors” (BEIJING SCITECH-MQ PHARMACEUTICALS LIMITED, priority 2018, dated 2025).

Tests used:
[1] = biological target: TRKA kinase (Homo sapiens (Human), UniProt P04629); experiment: Assay of small molecular compounds for inhibiting the activity of TRKA kinase (LANCE TR-FRET); type: biochemical
Summary of the method: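 LANCE TR-FRET with ULight-TK peptide; compounds pre-incubated 5 min with TRKA (2× solution 2 nM), then substrate/ATP added (4× mix: 400 nM peptide, 40 μM ATP). Reaction 60 min at room temperature in dark, 1% DMSO final; stopped, detection developed 60 min, signal read.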

[2] = biological target: c-MET kinase (Homo sapiens (Human), UniProt P08581); experiment: Assay of small molecular compounds for inhibiting the activity of c-MET kinase (LANCE TR-FRET); type: biochemical; conditions: read-out: CMET IC50
c-MET kinase, sequence (P08581 25-1390): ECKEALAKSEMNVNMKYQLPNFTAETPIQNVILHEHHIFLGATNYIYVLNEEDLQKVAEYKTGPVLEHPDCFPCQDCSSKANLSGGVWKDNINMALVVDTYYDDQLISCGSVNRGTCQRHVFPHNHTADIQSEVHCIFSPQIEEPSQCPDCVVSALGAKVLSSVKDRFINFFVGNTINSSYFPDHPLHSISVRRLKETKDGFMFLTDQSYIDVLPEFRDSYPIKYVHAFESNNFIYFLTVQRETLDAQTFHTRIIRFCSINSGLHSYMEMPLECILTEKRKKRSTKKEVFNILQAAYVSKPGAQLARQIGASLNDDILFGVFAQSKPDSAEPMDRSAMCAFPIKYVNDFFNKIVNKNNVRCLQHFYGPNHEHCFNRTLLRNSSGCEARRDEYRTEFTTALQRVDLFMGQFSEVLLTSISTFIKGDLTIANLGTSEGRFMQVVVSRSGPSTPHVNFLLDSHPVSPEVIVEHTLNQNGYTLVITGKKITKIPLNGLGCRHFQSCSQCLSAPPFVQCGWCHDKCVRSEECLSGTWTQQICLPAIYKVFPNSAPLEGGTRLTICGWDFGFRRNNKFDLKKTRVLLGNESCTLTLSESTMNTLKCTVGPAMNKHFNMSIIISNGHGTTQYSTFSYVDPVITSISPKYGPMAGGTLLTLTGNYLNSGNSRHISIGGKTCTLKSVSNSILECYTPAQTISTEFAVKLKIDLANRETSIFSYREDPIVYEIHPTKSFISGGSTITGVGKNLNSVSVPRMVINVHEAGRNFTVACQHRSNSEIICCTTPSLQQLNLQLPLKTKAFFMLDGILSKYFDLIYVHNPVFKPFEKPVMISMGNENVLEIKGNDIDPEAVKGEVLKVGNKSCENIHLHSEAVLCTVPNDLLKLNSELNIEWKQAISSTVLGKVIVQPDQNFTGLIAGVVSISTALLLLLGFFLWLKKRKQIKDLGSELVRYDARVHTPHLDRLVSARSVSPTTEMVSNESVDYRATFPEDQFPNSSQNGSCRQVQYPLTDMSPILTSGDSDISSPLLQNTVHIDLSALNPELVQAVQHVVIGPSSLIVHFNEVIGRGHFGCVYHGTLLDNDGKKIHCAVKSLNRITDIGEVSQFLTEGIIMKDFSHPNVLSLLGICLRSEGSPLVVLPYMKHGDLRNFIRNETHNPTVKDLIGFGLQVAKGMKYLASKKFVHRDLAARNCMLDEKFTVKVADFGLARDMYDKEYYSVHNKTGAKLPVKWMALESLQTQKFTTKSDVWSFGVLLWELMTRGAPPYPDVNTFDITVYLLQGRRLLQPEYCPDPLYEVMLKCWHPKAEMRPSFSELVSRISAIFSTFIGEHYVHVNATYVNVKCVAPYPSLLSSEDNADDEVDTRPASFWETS
Summary of the method: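 LANCE TR-FRET assay with c-MET at 1 nM final after a 5 min room-temperature preincubation with compound (11-point, 3-fold series, 2500–0.042 nM final, 4% DMSO). ULight-JAK-1 (Tyr1023) peptide (100 nM final) and ATP (10 μM final) reacted 60 min in the dark. Inhibition was taken relative to controls, then IC50 fitted.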

[3] = test system: Ba/F3-AXL cells; experiment: Assay for inhibiting the proliferation of Ba/F3-AXL cells (CCK-8); type: cell-based; conditions: 72 hours of incubation, medium with 100 ng/mL hGas6, CCK-8
Description: The values were then imported into Graphpad Prism 5 software for curve fitting, and IC50 was calculated.

[4] = test system: Ba/F3 LMNA-NTRK1 cells; experiment: Assay for inhibiting the proliferation of Ba/F3 LMNA-NTRK1 cells (CCK-8); type: cell-based; conditions: Mus musculus, BaF3
Summary of the method: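 Cells were seeded and cultured overnight, then treated with graded compound concentrations (final DMSO 0.25%) for 72 h. CCK-8 was added for 1–2 h at 37 °C and OD450 read. Survival was normalised to untreated and cell-free blank wells, and IC50 was fitted.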

TRKA kinase, sequence (P04629 33-796): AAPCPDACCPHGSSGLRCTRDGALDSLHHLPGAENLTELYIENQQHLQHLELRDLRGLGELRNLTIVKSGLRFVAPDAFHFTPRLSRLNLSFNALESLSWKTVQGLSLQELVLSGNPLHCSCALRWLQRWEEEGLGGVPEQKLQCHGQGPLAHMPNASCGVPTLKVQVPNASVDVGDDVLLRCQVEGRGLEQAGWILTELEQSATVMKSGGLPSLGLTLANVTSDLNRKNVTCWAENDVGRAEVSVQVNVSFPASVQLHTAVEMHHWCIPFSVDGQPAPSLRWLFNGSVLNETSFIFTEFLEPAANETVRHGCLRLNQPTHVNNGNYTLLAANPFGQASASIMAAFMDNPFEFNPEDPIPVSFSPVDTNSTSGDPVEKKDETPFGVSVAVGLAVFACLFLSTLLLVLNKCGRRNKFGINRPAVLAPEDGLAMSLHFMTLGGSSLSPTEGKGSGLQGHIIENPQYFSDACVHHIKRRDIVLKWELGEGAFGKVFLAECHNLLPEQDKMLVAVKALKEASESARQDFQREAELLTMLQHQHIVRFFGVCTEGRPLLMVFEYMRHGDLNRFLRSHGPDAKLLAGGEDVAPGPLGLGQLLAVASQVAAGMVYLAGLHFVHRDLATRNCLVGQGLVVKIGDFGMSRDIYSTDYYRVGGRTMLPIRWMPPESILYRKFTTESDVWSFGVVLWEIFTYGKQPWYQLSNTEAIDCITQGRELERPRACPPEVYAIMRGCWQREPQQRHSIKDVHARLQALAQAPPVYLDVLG

With `CCOc1ccn(-c2cccc(F)c2)c(=O)c1C(=O)Nc1ccc(Oc2ccnc3cc(OC)c4c(c23)OCCO4)c(F)c1` [Example 114, N-(3-fluoro-4-((5-methoxy-2,3-dihydro-[1,4]dioxino[2,3-f]quinolin-10-yl)oxy)phenyl)-2-oxo-4-ethoxy-1-(3-fluorophenyl)-1,2-dihydropyridin-3-carboxamide] as the compound, how does the IC50 [1] read?
Its IC50 is 50 to 500 nM.

And the IC50 [2]?
Its IC50 is ≤ 50 nM.

And the IC50 [3]?
Its IC50 is < 50 nM.

What does the source list for `CCOc1ccn(Cc2ccccc2)c(=O)c1C(=O)Nc1ccc(Oc2ccnc3cc(OC)c4c(c23)OCCO4)c(F)c1` [Example 117, N-(3-fluoro-4-((5-methoxy-2,3-dihydro-[1,4]dioxino[2,3-f]quinolin-10-yl)oxy)phenyl)-2-oxo-4-ethoxy-1-benzyl-1,2-dihydropyridin-3-carboxamide]?
IC50 [1]: 50 to 500 nM; IC50 [2]: ≤ 50 nM; IC50 [3]: < 50 nM

For `Cn1cc(C(=O)Nc2ccc(Oc3ccnc4cc(OCC(C)(C)O)c5c(c34)OCCO5)c(F)c2)c(=O)n(-c2ccc(F)cc2)c1=O` [Example 121, N-(3-fluoro-4-((5-(2-hydroxy-2-methylpropoxy)-2,3-dihydro-[1,4]dioxino[2,3-f]quinolin-10-yl)oxy)phenyl)-3-(4-fluorophenyl)-1-methyl-2,4-dioxo-1,2,3,4-tetrahydropyrimidine-5-carboxamide], which IC50 [1] is on record?
Its IC50 is 50 to 500 nM.

And the IC50 [2]?
Its IC50 is 50 to 500 nM.

What about the IC50 [3] of the same compound?
Its IC50 is < 50 nM.

Which IC50 [1] does the source give for `COc1cc2nccc(Oc3ccc(NC(=O)c4cn(CCCO)c(=O)n(-c5ccc(F)cc5)c4=O)cc3F)c2c2c1OCCO2` [Example 99, N-(3-fluoro-4-((5-methoxy-2,3-dihydro-[1,4]dioxino[2,3-f]quinolin-10-yl)oxy)phenyl)-3-(4-fluorophenyl)-1-(3-hydroxypropyl)-2,4-dioxo-1,2,3,4-tetrahydropyrimidine-5-carboxamide] here?
The IC50 was 50 to 500 nM.

And the IC50 [2]?
The IC50 was ≤ 50 nM.

And the IC50 [3]?
The IC50 was < 50 nM.

`O=C(Nc1ccc(Oc2ncnc3cc(OCCCN4CCOCC4)c4c(c23)OCCO4)c(F)c1)c1cccn(-c2ccc(F)cc2)c1=O` [Example 4, N-(3-fluoro-4-((5-(3-morpholinopropoxy)-2,3-dihydro-[1,4]dioxino[2,3-f]quinazolin-10-yl)oxy)phenyl)-1-(4-fluorophenyl)-2-oxo-1,2-dihydropyridine-3-carboxamide] was tested. Which IC50 [1] did it give?
The IC50 was < 50 nM.

What about the IC50 [2] of the same compound?
The IC50 was ≤ 50 nM.

And the IC50 [3]?
Its IC50 is < 50 nM.

Which results are given for `C=CCn1cc(C(=O)Nc2ccc(Oc3ccnc4cc(OC)c5c(c34)OCCO5)c(F)c2)c(=O)n(-c2ccc(F)cc2)c1=O` [Example 100, N-(3-fluoro-4-((5-methoxy-2,3-dihydro-[1,4]dioxino[2,3-f]quinolin-10-yl)oxy)phenyl)-3-(4-fluorophenyl)-1-allyl-2,4-dioxo-1,2,3,4-tetrahydropyrimidine-5-carboxamide]?
IC50 [1]: 50 to 500 nM; IC50 [2]: ≤ 50 nM; IC50 [3]: < 50 nM

For `O=C(Nc1ccc(Oc2ccnc3cc(OCCCN4CCCCC4)c4c(c23)OCCO4)cc1Cl)c1cccn(-c2ccc(F)cc2)c1=O` [Example 135, N-(2-chloro-4-((5-((3-piperidin-1-yl)propoxy)-2,3-dihydro-[1,4]dioxino[2,3-f]quinolin-10-yl)oxy)phenyl)-1-(4-fluorophenyl)-2-oxo-1,2-dihydropyridine-3-carboxamide], which IC50 [1] is on record?
The IC50 was < 50 nM.

And the IC50 [2]?
Its IC50 is ≤ 50 nM.

What about the IC50 [4] of the same compound?
Its IC50 is < 50 nM.

How did the IC50 [1] turn out when `COc1ccn(-c2ccc(F)cc2)c(=O)c1C(=O)Nc1ccc(Oc2ccnc3cc(OCC(C)(C)O)c4c(c23)OCCO4)cc1Cl` [Example 140, N-(2-chloro-4-((5-(2-hydroxy-2-methylpropoxy)-2,3-dihydro-[1,4]dioxino[2,3-f]quinolin-10-yl)oxy)phenyl)-1-(4-fluorophenyl)-4-methoxy-2-oxo-1,2-dihydropyridine-3-carboxamide] was run?
Its IC50 is < 50 nM.

And the IC50 [2]?
Its IC50 is ≤ 50 nM.

What about the IC50 [4] of the same compound?
The IC50 was < 50 nM.

What does the source list for `Cn1cc(C(=O)Nc2ccc(Oc3ccnc4cc(OCC(C)(C)O)c5c(c34)OCCO5)cc2)c(=O)n(-c2ccc(F)cc2)c1=O` [Example 149, N-(4-((5-(2-hydroxy-2-methylpropoxy)-2,3-dihydro-[1,4]dioxino[2,3-f]quinolin-10-yl)oxy)phenyl)-3-(4-fluorophenyl)-1-methyl-2,4-dioxo-1,2,3,4-tetrahydropyrimidine-5-carboxamide]?
IC50 [1]: < 50 nM; IC50 [2]: ≤ 50 nM; IC50 [4]: < 50 nM

With `COc1cc2nccc(Oc3ccc(NC(=O)c4cn(CCF)c(=O)n(-c5ccc(F)cc5)c4=O)cc3F)c2c2c1OCCO2` [Example 101, N-(3-fluoro-4-((5-methoxy-2,3-dihydro-[1,4]dioxino[2,3-f]quinolin-10-yl)oxy)phenyl)-3-(4-fluorophenyl)-1-(2-fluoroethyl)-2,4-dioxo-1,2,3,4-tetrahydropyrimidine-5-carboxamide] as the compound, how does the IC50 [1] read?
Its IC50 is 50 to 500 nM.

What about the IC50 [2] of the same compound?
Its IC50 is ≤ 50 nM.

What about the IC50 [3] of the same compound?
The IC50 was < 50 nM.

For `CCOc1cc2nccc(Oc3ccc(NC(=O)c4c(OC)ccn(-c5ccc(F)cc5)c4=O)c(Cl)c3)c2c2c1OCCO2` [Example 128, N-(2-chloro-4-((5-ethoxy-2,3-dihydro-[1,4]dioxino[2,3-f]quinolin-10-yl)oxy)phenyl)-1-(4-fluorophenyl)-4-methoxy-2-oxo-1,2-dihydropyridine-3-carboxamide], which IC50 [1] is on record?
The IC50 was < 50 nM.

And the IC50 [2]?
Its IC50 is ≤ 50 nM.

And the IC50 [4]?
Its IC50 is < 50 nM.

Which results are given for `CCOc1cc2nccc(Oc3ccc(NC(=O)c4cccn(-c5ccc(F)cc5)c4=O)c(Cl)c3)c2c2c1OCCO2` [Example 127, N-(2-chloro-4-((5-ethoxy-2,3-dihydro-[1,4]dioxino[2,3-f]quinolin-10-yl)oxy)phenyl)-1-(4-fluorophenyl)-2-oxo-1,2-dihydropyridine-3-carboxamide]?
IC50 [1]: < 50 nM; IC50 [2]: ≤ 50 nM; IC50 [4]: < 50 nM

`Cn1cc(C(=O)Nc2ccc(Oc3ccnc4ccc5c(c34)OCCO5)cc2F)c(=O)n(-c2ccc(F)cc2)c1=O` [Example 162, N-(4-((2,3-dihydro-[1,4]dioxino[2,3-f]quinolin-10-yl)oxy)-2-fluorophenyl)-3-(4-fluorophenyl)-1-methyl-2,4-dioxo-1,2,3,4-tetrahydropyrimidine-5-carboxamide] was tested. Which IC50 [1] did it give?
The IC50 was < 50 nM.

And the IC50 [2]?
Its IC50 is 500 to 5000 nM.

What about the IC50 [4] of the same compound?
Its IC50 is < 50 nM.

What does the source list for `CCOc1ccn(-c2ccc(F)cc2)c(=O)c1C(=O)Nc1ccc(Oc2ccnc3cc(OCCCN4CCCCC4)c4c(c23)OCCO4)cc1Cl` [Example 138, N-(2-chloro-4-((5-((3-piperidin-1-yl)propoxy)-2,3-dihydro-[1,4]dioxino[2,3-f]quinolin-10-yl)oxy)phenyl)-1-(4-fluorophenyl)-4-ethoxy-2-oxo-1,2-dihydropyridine-3-carboxamide]?
IC50 [1]: < 50 nM; IC50 [2]: ≤ 50 nM; IC50 [4]: < 50 nM

With `CCOc1ccn(-c2ccc(F)cc2)c(=O)c1C(=O)Nc1ccc(Oc2ncnc3cc(OCCCN4CCOCC4)c4c(c23)OCCO4)c(F)c1` [Example 6, N-(3-fluoro-4-((5-(3-morpholinopropoxy)-2,3-dihydro-[1,4]dioxino[2,3-f]quinazolin-10-yl)oxy)phenyl)-1-(4-fluorophenyl)-4-ethoxy-2-oxo-1,2-dihydropyridine-3-carboxamide] as the compound, how does the IC50 [1] read?
Its IC50 is < 50 nM.

What about the IC50 [2] of the same compound?
Its IC50 is ≤ 50 nM.

And the IC50 [4]?
Its IC50 is < 50 nM.

Which results are given for `COc1ccn(-c2ccc(F)cc2)c(=O)c1C(=O)Nc1ccc(Oc2ccnc3cc(OCCCN4CCCCC4)c4c(c23)OCCO4)cc1Cl` [Example 136, N-(2-chloro-4-((5-((3-piperidin-1-yl)propoxy)-2,3-dihydro-[1,4]dioxino[2,3-f]quinolin-10-yl)oxy)phenyl)-1-(4-fluorophenyl)-4-methoxy-2-oxo-1,2-dihydropyridine-3-carboxamide]?
IC50 [1]: < 50 nM; IC50 [2]: ≤ 50 nM; IC50 [4]: < 50 nM

With `COCCOc1cc2nccc(Oc3ccc(NC(=O)c4cn(C)c(=O)n(-c5ccc(F)cc5)c4=O)cc3)c2c2c1OCCO2` [Example 147, N-(4-((5-(2-methoxyethoxy)-2,3-dihydro-[1,4]dioxino[2,3-f]quinolin-10-yl)oxy)phenyl)-3-(4-fluorophenyl)-1-methyl-2,4-dioxo-1,2,3,4-tetrahydropyrimidine-5-carboxamide] as the compound, how does the IC50 [1] read?
Its IC50 is < 50 nM.

What about the IC50 [2] of the same compound?
Its IC50 is ≤ 50 nM.

And the IC50 [4]?
The IC50 was < 50 nM.

What does the source list for `Cn1cc(C(=O)Nc2ccc(Oc3ccnc4cc(OCCCN5CCCCC5)c5c(c34)OCCO5)cc2Cl)c(=O)n(-c2ccc(F)cc2)c1=O` [Example 137, N-(2-chloro-4-((5-((3-piperidin-1-yl)propoxy)-2,3-dihydro-[1,4]dioxino[2,3-f]quinolin-10-yl)oxy)phenyl)-3-(4-fluorophenyl)-1-methyl-2,4-dioxo-1,2,3,4-tetrahydropyrimidine-5-carboxamide]?
IC50 [1]: < 50 nM; IC50 [2]: ≤ 50 nM; IC50 [4]: < 50 nM

What does the source list for `CCn1cc(C(=O)Nc2ccc(Oc3ccnc4cc(OCC(C)(C)O)c5c(c34)OCCO5)cc2)c(=O)n(-c2ccc(F)cc2)c1=O` [Example 150, N-(4-((5-(2-hydroxy-2-methylpropoxy)-2,3-dihydro-[1,4]dioxino[2,3-f]quinolin-10-yl)oxy)phenyl)-3-(4-fluorophenyl)-1-ethyl-2,4-dioxo-1,2,3,4-tetrahydropyrimidine-5-carboxamide]?
IC50 [1]: < 50 nM; IC50 [2]: ≤ 50 nM; IC50 [4]: < 50 nM
